Measurements taken from US12636270B2, “Levothyroxine liquid formulations” (Fresenius Kabi USA, LLC, priority 2016, dated 2026).
Read-outs that look alike come from different tables or passages of the source.

How the values were obtained:
[1] = tromethamine 10 mg/mL, normal saline
Procedure: (§1) The HPLC conditions were as follows: • Column: Waters […]™ C8 (5 μm, 4.6×150 mm) HPLC column • Mobile Phase A: Sodium heptanesulfonate/Acetonitrile/Water/Methanol/H3PO4 (4.023 g/800 mL/1600 mL/1600 mL/4 mL) • Mobile Phase B: Sodium heptanesulfonate/Acetonitrile/Water/Methanol/H3PO4 (2.013 g/1000 mL/100 mL/900 mL/2 mL) • Diluent: 0.01 N NaOH • Column temperature: 25° C. • Flow rate: 1.5 mL/min • Injection volume: 40-200 μL • Autosampler temperature: 5° C. • Detection: UV at 225 nm • Separation mode: Gradient Gradient Program:
The effect of pH on levothyroxine stability was further tested in samples having a pH 9.5-11.5. Separate samples containing levothyroxine sodium at a concentration of 20 mcg/mL or 100 mcg/mL, tromethamine at a concentration of 10 mg/mL in normal saline were adjusted to various pH levels. 5 mL of each sample was filled into 10 cc amber tubing vials, and the vials were stoppered with 20 mm stoppers under nitrogen. The samples were stored at temperatures of 25° C., 40° C., and 55° C. The samples stored at 55° C. were analyzed by HPLC at 1 W and 2 W of storage. The samples stored at 25° C. and 40° C. were analyzed by HPLC at 2M of storage using the HPLC conditions described hereinabove.

[2] = 20 mcg/mL, tromethamine 10 mg/mL, normal saline
Procedure: Separate samples containing levothyroxine sodium at a concentration of 20 mcg/mL, tromethamine at a concentration of 10 mg/mL in normal saline (0.9% NaCl in water) were adjusted to various pH levels. One sample additionally contained hydroxypropyl (HP) β-cyclodextrin at a concentration of 10 mg/mL. 5 mL of each sample was filled into 10 cc amber tubing vials, and the vials were stoppered with 20 mm stoppers under nitrogen. The samples were stored at temperatures of 25° C., 40° C. and 55° C. The samples stored at 55° C. were analyzed by HPLC at 1 and 4 weeks (W) of storage. The samples stored at 40° C. were analyzed by HPLC at 4 W and 3 months (M) of storage. The samples stored at 25° C. were analyzed by HPLC at 3M of storage.
as §1, with “Program: […]” for “Program:”
The results for liothyronine, largest unknown impurity, and total impurities as determined by peak area percent are set forth in Table 1.

[3] = 25° C., 2 M, pH 10.4, 20 mcg/mL
[4] = 25° C., 2 M, pH 10.4, 100 mcg/mL
[5] = 25° C., 2 M, pH 11.5, 20 mcg/mL
[6] = 40° C., 2 M, pH 10.4, 20 mcg/mL
[7] = 40° C., 2 M, pH 10.4, 100 mcg/mL
[8] = 40° C., 2 M, pH 11.5, 20 mcg/mL
[9] = 55° C., 1 W, pH 10.4, 20 mcg/mL
[10] = 55° C., 1 W, pH 10.4, 100 mcg/mL
[11] = 55° C., 1 W, pH 11.5, 20 mcg/mL
[12] = 55° C., 2 W, pH 10.4, 20 mcg/mL
[13] = 55° C., 2 W, pH 10.4, 100 mcg/mL
[14] = 55° C., 2 W, pH 11.5, 20 mcg/mL
[15] = 55° C., 1 W, pH 9, HP-β-cyclodextrin 10 mg/mL

For `N[C@@H](Cc1cc(I)c(Oc2cc(I)c(O)c(I)c2)c(I)c1)C(=O)[O-].[Na+]` [Levothyroxine Na, 4-(4-hydroxy-3,5-diiodophenoxy)-3,5-diiodo-L-phenylalanine sodium], the “% Liothyronine” value ([1]; 25° C., 2 M, pH 9.5, 20 mcg/mL) was 0.34%, the “% largest unknown impurity” value ([1]; 25° C., 2 M, pH 9.5, 20 mcg/mL) was 0.11% and the “% total impurities” value ([1]; 25° C., 2 M, pH 9.5, 20 mcg/mL) was 0.7%. For the same compound, the “% Liothyronine” value [1, 3] was 0.17%, the “% largest unknown impurity” value [1, 3] was 0.20% and the “% total impurities” value [1, 3] was 0.6%. For the same compound, the “% Liothyronine” value [1, 4] was 0.23%, the “% largest unknown impurity” value [1, 4] was 0.11% and the “% total impurities” value [1, 4] was 0.6%. The “% Liothyronine” value [1, 5] was 0.34%, the “% largest unknown impurity” value [1, 5] was 15.4% and the “% total impurities” value [1, 5] was 19.6%. For the same compound, the “% Liothyronine” value ([1]; 40° C., 2 M, pH 9.5, 20 mcg/mL) was 1.00%, the “% largest unknown impurity” value ([1]; 40° C., 2 M, pH 9.5, 20 mcg/mL) was 0.14% and the “% total impurities” value ([1]; 40° C., 2 M, pH 9.5, 20 mcg/mL) was 1.44%. The “% Liothyronine” value [1, 6] was 0.38%, the “% largest unknown impurity” value [1, 6] was 0.22% and the “% total impurities” value [1, 6] was 0.88%. The “% Liothyronine” value [1, 7] was 0.49%, the “% largest unknown impurity” value [1, 7] was 0.10% and the “% total impurities” value [1, 7] was 0.8%. The “% Liothyronine” value [1, 8] was 0.31%, the “% largest unknown impurity” value [1, 8] was 9.2% and the “% total impurities” value [1, 8] was 12.1%. For the same compound, the “% Liothyronine” value ([1]; 55° C., 1 W, pH 9.5, 20 mcg/mL) was 0.9%, the “% largest unknown impurity” value ([1]; 55° C., 1 W, pH 9.5, 20 mcg/mL) was 0.09% and the “% total impurities” value ([1]; 55° C., 1 W, pH 9.5, 20 mcg/mL) was 1.2%. For the same compound, the “% Liothyronine” value [1, 9] was 0.2%, the “% largest unknown impurity” value [1, 9] was 0.09% and the “% total impurities” value [1, 9] was 0.5%. For the same compound, the “% Liothyronine” value [1, 10] was 0.3%, the “% largest unknown impurity” value [1, 10] was 0.11% and the “% total impurities” value [1, 10] was 0.7%. For the same compound, the “% Liothyronine” value [1, 11] was 0.1%, the “% largest unknown impurity” value [1, 11] was 0.08% and the “% total impurities” value [1, 11] was 0.4%. The “% Liothyronine” value ([1]; 55° C., 2 W, pH 9.5, 20 mcg/mL) was 1.9%, the “% largest unknown impurity” value ([1]; 55° C., 2 W, pH 9.5, 20 mcg/mL) was 0.1% and the “% total impurities” value ([1]; 55° C., 2 W, pH 9.5, 20 mcg/mL) was 2.0%. The “% Liothyronine” value [1, 12] was 0.4%, the “% largest unknown impurity” value [1, 12] was 0.1% and the “% total impurities” value [1, 12] was 0.9%. For the same compound, the “% Liothyronine” value [1, 13] was 0.8%, the “% largest unknown impurity” value [1, 13] was 0.11% and the “% total impurities” value [1, 13] was 1.1%. For the same compound, the “% Liothyronine” value [1, 14] was 0.2%, the “% largest unknown impurity” value [1, 14] was 0.1% and the “% total impurities” value [1, 14] was 0.4%. For the same compound, the “% Liothyronine” value ([2]; 25° C., 3 M, pH 9.5) was 0.6%, the “% largest unknown impurity” value ([2]; 25° C., 3 M, pH 9.5) was 0.46% and the “% total impurities” value ([2]; 25° C., 3 M, pH 9.5) was 1.51%. The “% Liothyronine” value ([2]; 25° C., 3 M, pH 10) was 0.35%, the “% largest unknown impurity” value ([2]; 25° C., 3 M, pH 10) was 0.11% and the “% total impurities” value ([2]; 25° C., 3 M, pH 10) was 0.71%. For the same compound, the “% largest unknown impurity” value ([2]; 40° C., 3 M, pH 9.5) was 0.48%, the “% total impurities” value ([2]; 40° C., 3 M, pH 9.5) was 2.66% and the “% largest unknown impurity” value ([2]; 40° C., 3 M, pH 10) was 0.16%. For the same compound, the “% total impurities” value ([2]; 40° C., 3 M, pH 10) was 1.35%, the “% Liothyronine” value ([2]; 40° C., 4 W, pH 9.5) was 0.9% and the “% largest unknown impurity” value ([2]; 40° C., 4 W, pH 9.5) was 0.12%. The “% total impurities” value ([2]; 40° C., 4 W, pH 9.5) was 1.7%, the “% Liothyronine” value ([2]; 40° C., 4 W, pH 10) was 0.4% and the “% largest unknown impurity” value ([2]; 40° C., 4 W, pH 10) was 0.12%. For the same compound, the “% total impurities” value ([2]; 40° C., 4 W, pH 10) was 0.6%, the “% Liothyronine” value ([2]; 55° C., 1 W, pH 8) was 15.2% and the “% largest unknown impurity” value ([2]; 55° C., 1 W, pH 8) was 1.59%. For the same compound, the “% total impurities” value ([2]; 55° C., 1 W, pH 8) was 17.5%, the “% Liothyronine” value [2, 15] was 2.7% and the “% largest unknown impurity” value [2, 15] was 0.86%. The “% total impurities” value [2, 15] was 4.0%, the “% Liothyronine” value ([2]; 55° C., 1 W, pH 9) was 2.7% and the “% largest unknown impurity” value ([2]; 55° C., 1 W, pH 9) was 0.67%. For the same compound, the “% total impurities” value ([2]; 55° C., 1 W, pH 9) was 3.6%, the “% Liothyronine” value ([2]; 55° C., 1 W, pH 9.5) was 1.2% and the “% largest unknown impurity” value ([2]; 55° C., 1 W, pH 9.5) was 0.50%. The “% total impurities” value ([2]; 55° C., 1 W, pH 9.5) was 2.2%, the “% Liothyronine” value ([2]; 55° C., 1 W, pH 10) was 0.6% and the “% largest unknown impurity” value ([2]; 55° C., 1 W, pH 10) was 0.27%. For the same compound, the “% total impurities” value ([2]; 55° C., 1 W, pH 10) was 1.5%, the “% largest unknown impurity” value ([2]; 55° C., 4 W, pH 9.5) was 0.09% and the “% total impurities” value ([2]; 55° C., 4 W, pH 9.5) was 2.1%. The “% Liothyronine” value ([2]; 55° C., 4 W, pH 10) was 3.1%, the “% largest unknown impurity” value ([2]; 55° C., 4 W, pH 10) was 0.55% and the “% total impurities” value ([2]; 55° C., 4 W, pH 10) was 4.2%.
